Experimental data published in patent US10183013B2, “Cyclic sulfonamide containing derivatives as inhibitors of hedgehog signaling pathway” (NantBioScience, Inc., priority 2012, dated 2019).
Read-outs that look alike come from different tables or passages of the source.

Key:
[1] = tested on: Hedgehog signalling (Gli-bla NIH3T3 cells, mShh stimulated); assay: Hedgehog signalling inhibition assay (Gli-Bla reporter assay in NIH 3T3 cells); format: cell-based
Method: Hedgehog signalling inhibition assays. The following table 2 represents the average EC50 values for particular compounds of the inventions. Gli-bla NIH3T3 cells (7500 cells/well) were plated the day prior to the assay in a 384-well and 96-format in complete growth medium. […] Cells were stimulated with mShh for 24 hours and then loaded with LiveBLAzer™-FRET B/G Substrate for 3 hours. Emission values at 460 nm and 530 nm were obtained using a standard fluorescence plate reader and the 460/530 Ratios plotted for each treatment (n=4 for each data point).
J. Cancer, 2011, 30(7):472-81).

SMO = molecular target: T1, SMO (Homo sapiens, UniProt Q99835); assay: SMO BODIPY-CYC binding assay using HEK293H cells
T1 construct: host or cells: HEK293H cells
T1 sequence (Q99835 28-787): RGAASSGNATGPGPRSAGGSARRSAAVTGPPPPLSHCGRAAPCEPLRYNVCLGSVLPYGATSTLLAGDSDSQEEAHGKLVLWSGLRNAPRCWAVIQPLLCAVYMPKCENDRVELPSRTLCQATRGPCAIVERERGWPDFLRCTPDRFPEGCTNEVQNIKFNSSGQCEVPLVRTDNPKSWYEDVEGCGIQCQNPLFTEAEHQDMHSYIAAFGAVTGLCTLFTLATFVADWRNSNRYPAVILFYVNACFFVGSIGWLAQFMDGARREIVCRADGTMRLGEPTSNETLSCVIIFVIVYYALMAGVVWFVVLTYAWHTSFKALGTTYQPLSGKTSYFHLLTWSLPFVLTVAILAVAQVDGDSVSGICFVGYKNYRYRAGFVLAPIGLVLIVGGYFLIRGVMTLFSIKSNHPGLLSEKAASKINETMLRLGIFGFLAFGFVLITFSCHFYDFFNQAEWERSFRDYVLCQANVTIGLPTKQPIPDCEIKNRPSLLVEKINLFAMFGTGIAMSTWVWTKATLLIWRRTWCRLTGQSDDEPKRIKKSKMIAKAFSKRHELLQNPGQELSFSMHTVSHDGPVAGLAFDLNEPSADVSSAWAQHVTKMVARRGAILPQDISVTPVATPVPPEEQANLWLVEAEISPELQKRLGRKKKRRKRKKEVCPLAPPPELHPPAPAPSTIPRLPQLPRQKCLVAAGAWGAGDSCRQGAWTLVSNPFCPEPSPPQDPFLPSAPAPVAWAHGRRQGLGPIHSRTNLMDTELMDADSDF

[2] = Mus musculus, NIH3T3, 24 h, read-out: EC50

In the case of `O=C(Nc1ccc(Oc2cccc(Cl)c2)cc1)c1ccc(N2CCCS2(=O)=O)cc1Cl` [Example 141], the EC50 [1, 2] is reported as under 10 nM.

Work on `O=C(Nc1ccc(Oc2cccc(Cl)c2)cc1)c1ccc(N2CCOCS2(=O)=O)cc1Cl` [Example 142] yielded an EC50 [1, 2] of under 10 nM.

`CC(=O)Nc1cc(NC(=O)c2ccc(N3CCOCS3(=O)=O)cc2Cl)ccc1Cl` [Example 143] showed an EC50 [1, 2] of under 10 nM.

`CS(=O)(=O)c1ccc(C(=O)Nc2ccc(Cl)c(-c3ccccn3)c2)c(Cl)c1` [GDC-0449, reference compound] showed an EC50 ([1]; Mus musculus, NIH3T3, NIH 3T3 cells, read-out: Gli-Bla reporter assay (EC50)) of 7 nM.

For `Cc1nn(-c2ccccc2)c(C)c1/C=N/N1CCN(Cc2ccccc2)CC1` [Sant-1, reference compound], the EC50 (SMO) was 0.592 nM and the EC50 ([1]; NIH 3T3 cells, read-out: Gli-Bla reporter assay (EC50)) was 5 nM.
